A melting point compilation (Tetko et al.; mined from patent text by program, amines drawn as free bases though some values may be those of a salt)

| SMILES | melting point [°C] |
| --- | --- |
| COc1cc2cc3c(Nc4ccc(Sc5nccn5C)c(Cl)c4)c(C#N)cnc3cc2cc1O | > 300 |
| Nc1ccc(-c2nc3c(F)cccc3s2)cc1 | 219 to 221 |
| N#Cc1c[nH]c2cc(-c3ccccc3)sc2c1=O | > 300 |
| O=S(=O)(c1ccccc1)N1CCC(Nc2nc(Cl)nc(N3CCCC3)n2)CC1 | 184 to 186 |
| O=C1OC2(CC(c3cccc(-c4ccccc4)c3)=NO2)c2ccccc21 (stereo not given) | 152 to 159 |
| CCCCCN1C(=O)C2(COc3cc4c(cc32)OCCO4)c2ccccc21 (stereo not given) | 111 to 113 |
| OCc1ccc(-c2nn(Cc3ccccc3)c3ncncc23)o1 | 165 |
| CCc1ccc(C=O)nc1 | 138 to 140 |
| O=C(Nc1ccc(C(=O)N2Cc3cccn3Cc3ccccc32)cc1)c1ccc2[nH]ccc2c1 | 130 to 170 |
| COc1ccc2c(c1)c(C(=O)CCC(=O)O)c(C)n2Cc1ccc(Br)cc1 | 215 to 217 |
| CN1Cc2c(/C=C\Cl)ncn2-c2ccccc2C1=O | 197 to 199 |
| NC(=O)CNC(=O)c1ccc(F)c(-c2ccc(F)c3cc(Cc4cc(F)cc(Cl)c4)sc23)c1 | 178 to 179 |
| CCCN(CCC)CCCCCOc1ccc2oc(-c3ccc(OC)cc3)cc(=O)c2c1 | 63 to 64 |
| Cn1cc(C(=O)NCc2ccc(Cl)cc2)c(=O)c2cc(CN3CCOCC3)cc(I)c21 | 156 to 158 |
| CS(=O)c1ccc(-n2cnc3ccc(-c4nnc(CC(F)(F)F)o4)cc32)cc1 (stereo not given) | 184 to 185 |
| CC(C)(C)c1ccc(C2C=C(c3ccc(C#C[Si](C)(C)C)cc3)NN2c2ccccc2)cc1 (stereo not given) | 160 to 162 |
| CN1C(=O)CC[C@]2(C)c3ccc(Sc4ccc(-c5ccccc5)nn4)cc3CC[C@@H]12 | 199 to 200 |
| Cc1ccc([N+](=O)[O-])cc1Nc1ncc(-c2cccnc2)o1 | 252 |
| CCCCCCCCCCCCCCCCN=C=O | 107 to 109 |
| CS(=O)c1ncc2ccc(=O)n(-c3ccccc3)c2n1 (stereo not given) | 248 to 250 |
| CCC1=Nc2nc(C3CCCC3)[nH]c2C2=N[C@H](Cc3ccccc3)CN12 | 187 to 189 |
| N#CC(NC(=O)c1cccn2cc(-c3ccccc3)nc12)c1ccco1 (stereo not given) | 197 to 199 |
| O=Cc1ccnc(OCC=CCNC(=O)CS(=O)Cc2ccco2)c1 (stereo not given) | 67.6 to 69.9 |
| NS(=O)(=O)c1ccc(-c2cccc(-c3nc(-c4ccc(C(F)(F)F)nc4)cc(C(F)F)n3)c2)s1 | 246 |
| CS(=O)(=O)Cc1cc(N)ccc1N1C(=O)c2ccc(Cl)cc2C1=O | 228 to 230 |

| SMILES | melting point [°C] |
| --- | --- |
| Cn1ccnc1S(=O)(=O)C(C)(Cc1ccc(-c2ccccc2)cc1)C(=O)NO (stereo not given) | 112 |
| Fc1cc2c(Nc3ccc(OCc4ccccn4)c(Cl)c3)ncnc2cn1 | 216 to 219 |
| CCOC(=O)C(Br)=CC1C(C(=O)OC(C#N)c2cccc(Oc3ccccc3)c2)C1(C)C (stereo not given) | 69 |
| CC1(CN2CCC(Cc3ccc(F)cc3)CC2)CC(c2ccc3[nH]c(=O)oc3c2)=NO1 (stereo not given) | 82 to 86 |
| NN=c1cc(-c2c[nH]nc2-c2cccc(Cl)c2)cc[nH]1 | 163 to 164 |
| O=c1[nH]c2ccc(CCCCN3CCN(c4cccc5ccccc45)CC3)cc2o1 | 231 to 233 |
| COc1cc(OC)nc(Oc2cccc(C(F)(F)F)c2C(=O)O)n1 | 151 to 153 |
| Cc1ccccc1-c1ccc(C(=O)N2Cc3ccc(C(=O)NCCCc4ccccc4)n3Cc3ccccc32)cc1C | 183 to 184 |
| N#CN1CCC2(CC1)CN(c1ccccc1[N+](=O)[O-])c1ccccc12 | 148 to 150 |
| Cc1[nH]cc2c(=O)n(-c3ccc(Cl)cc3)nc-2c1-c1cccc(NCc2cccnc2)c1 | 284 to 287 |
| COc1ccc(-c2cc3cc(OC)cc(C(C)(C)C#N)c3o2)cc1 | 146 to 148 |
| Cc1ccc(C)n1CCNC(=O)Nc1ccc(Cl)cc1 | 175 to 177 |
| C=Cc1ccc(CP(=O)(C(=O)c2c(C)cc(C)cc2C)C(=O)c2c(C)cc(C)cc2C)cc1 | 208 |
| CNc1nc(-c2cc(F)cc(F)c2)nc2nc(-c3ccco3)nn12 | 231 to 234 |
| CC(C)(C)c1cc(C(O)c2ccccc2)cc(C(C)(C)C)c1O (stereo not given) | 117 to 119 |
| Cc1cccc2c1N(CC(=O)c1ccccc1[N+](=O)[O-])C(=O)C(NC(=O)Nc1cccc(-c3nnn[nH]3)c1)N=C2c1ccccc1F (stereo not given) | 192 to 197 |
| CCC1(CO)COC2(CC(c3ccc(Cl)cc3)SC(c3ccc(Cl)cc3)C2)OC1 (stereo not given) | 138 |
| Cc1ccc(-c2nc(C)cc(O)n2)cc1 | 206 to 207 |
| CC12CC(CCCCCCl)C3c4ccc(O)cc4CCC3C1CCC2O (stereo not given) | 159 |
| COc1ccc2c(c1)C(=O)N(CCN(C)CCN1C(=O)c3cc(OC)ccc3C(C)(C)C1=O)C(=O)C2(C)C | 150 to 151 |
| N#Cc1ccccc1-c1ccc(CBr)c(Br)c1 | 152 to 153 |
| CCCC(O)c1cc(C#N)ccc1OCc1ccc(Cl)cc1Cl (stereo not given) | 120 to 121 |
| C=CCN(C)C/C=C/COc1cc2c(cc1F)c(-c1ccc(Br)cc1)nn2C | 135 to 137 |
| Cc1oc(-c2ccco2)nc1COc1ccc(COc2nn(Cc3ccccc3)cc2CO)cc1OCc1ccccc1 | 145 to 146 |
| Fc1cc(Cl)c(CCl)cc1-c1ncnc(C(F)F)c1Cl | 132 to 133 |

Now from value to compound:

| melting point [°C] | SMILES |
| --- | --- |
| 134 to 136 | CCOC(=O)OC1=C(c2c(C)cc(C)cc2C)C(=O)N(C)C12CCN(OC)CC2 |
| 193 to 194 | CN1C[C@H]2c3ccccc3[C@H](c3ccccc3)CN2C(=O)C1=O (relative stereo) |
| 161 to 164 | CCOC(=O)c1cn(-c2ccc(F)cc2F)c2cc(F)c(F)c(C)c2c1=O |
| 114 to 115 | CCCNC(=O)NCCCCN1CCC(CNC(=O)c2cc(Cl)c(N)cc2OC)CC1 |
| 258 to 260 | Cc1ccc(N2C(=O)C(N)=C(C(=O)c3ccc(C(C)C)cc3)C2c2ccc(OC(F)(F)F)cc2)nn1 (stereo not given) |
| 121 to 127 | CC(O)c1sc(S(N)(=O)=O)cc1S(C)(=O)=O (stereo not given) |
| 153 to 155 | CC(C#N)(CO)NS(=O)(=O)Cc1ccccc1 (stereo not given) |
| 98 | Cc1nc2cc3c(cc2c(=O)n1COC(=O)C(C)(C)C)C(Br)CC3 (stereo not given) |
| 194 to 195 | CCCOc1ccc(CN/C=C2\C(=O)NC(=O)c3ccc(-c4ccc(F)cc4)cc32)cc1O |
| 96 to 99 | CON1C(=O)CC2(CCN(CNC(=O)c3ccccc3O)CC2)C1=O |
| 102 to 105 | O=C1C[C@@H](COS(=O)(=O)c2ccccc2)N1 |
| 70 | Cc1ccc(C)c2c1CCC2=O |
| 73 to 75 | CC(C)CC(CNOCc1ccccc1)C(=O)O (racemic) |
| 98 to 99 | CC(C)(C)OC(=O)NC(Cc1ccc(OCc2ccccc2)cc1)CN1CCOCC1 (stereo not given) |
| 64 to 67 | CC[C@H](C)CNC(=O)[C@@H](C[C@H](O)[C@H](CC1CCCCC1)NC(=O)OC(C)(C)C)C(C)(C)O |
| 156 to 158 | COc1ccc(CNC(=O)Nc2ccc(CN3C(=O)[C@H]4CCC[C@H]4N(C(=O)CN4C(=O)c5ccccc5C4=O)c4ccccc43)cc2)cc1 (relative stereo) |
| 94 to 95 | CCc1cccc(CC(=O)O)c1OCCCc1cn(Cc2nc(-c3ccccc3)oc2C)nc1C(C)C |
| 123 to 124 | CCCCOc1ccc(/C=C/c2nc3c(c(=O)n(CC)c(=O)n3CC)n2C)cc1 |
| 111 to 112 | COC(=O)Cc1nc2nc(C)cc(Cl)n2n1 |
| 77 to 79 | CC(C)(C)OC(=O)N[C@@H](CC1CCCCC1)[C@@H](O)CCO |
| 145 | COc1c(C)cc(C(=O)c2cc(-c3ccc(NC(C)=O)cc3)c(N3CCOCC3)s2)nc1C |
| 85 | COc1c(CCc2ccc(F)cc2)cc(Cl)cc1C(N)=O |
| 63 to 65 | COc1ccc(C2(C#Cc3cccc(NC(=O)C(F)(F)F)c3)CCCC(=O)C2)cc1OC1CCCC1 (stereo not given) |

| melting point [°C] | SMILES |
| --- | --- |
| 56 to 66 | COC(=O)c1cc(-c2ccc(OC)c(F)c2)nn(CC2CCCC2)c1=O |
| 239 | CNC(=O)COC1C(O)C(CO)OC(Oc2ccc(N)cc2)C1O (stereo not given) |
| 156 | COc1ccc(Oc2ccc(C(=O)NC(C(=O)O)C(C)C)cc2)cc1 (stereo not given) |
| 208 to 209 | Cc1cc(Cn2nnc(C(N)=O)c2N)cc(C)c1C(=O)c1ccc(Cl)cc1 |
| 60 to 61 | Cc1cc(Oc2ccccc2)ccc1C(=O)CBr |
| 126 to 128 | CCCOc1ccc(S(=O)(=O)N2CCN(CCOC(=O)CC)CC2)cc1-c1nc2c(CCC)cn(CC)c2c(=O)[nH]1 |
| 179 to 183 | Cc1c(F)cc(C(=O)NCC2CC2)cc1-c1ccc(C(=O)NCC(C)(C)C)cc1C(=O)Nc1nccs1 |
| 130 | COC(=O)C=C1C(=O)N(c2ccccc2)C(=O)N1Cc1ccccc1 |
| 210 | COc1cc(NC(=O)c2csc(NC(=O)NCc3ccccc3)n2)ccc1OCC(=O)O |
| 190 to 192 | CCOC(=O)NN=Cc1nc(Cc2ccccc2)[nH]c1C |
| 132 | COC(=O)C(F)(F)CC(C)C1CCC2C3CC=C4CC(OC(C)=O)CCC4(C)C3CCC12C (stereo not given) |
| 90 to 91 | COc1ccc2cc(C(=O)[C@H](C)Br)ccc2c1 |
| 119 to 120 | CC1(C)OC(=O)N(Cc2ccccc2[N+](=O)[O-])C1O (stereo not given) |
| 138 | CC(=O)Nc1cc2c(cc1Br)CCC2 |
| 120 to 121 | C[C@@H](Cc1cc(F)cc2ccoc12)NC(=O)OC(C)(C)C |
| 80 to 85 | CCc1ccc2c3c(c(=O)oc2c1)CNCC3 |
| 102 | C=C(C)C(=O)OC1CC(=O)NC1=O (stereo not given) |
| 217 to 218 | Cc1cc(C(=O)O)ccc1Sc1cc2c(cc1C)C(C)(C)CCC2(C)C |
| 82 | CCOC(=O)CC(NS(=O)(=O)c1cccc(-c2cccc(NC(=NC#N)NC3CC3)c2)c1)c1ccccc1 (stereo not given) |
| 191 to 192 | CS(=O)CC(=O)Nc1c(C(=O)c2ccccc2)[nH]c2cc(Cl)ccc12 (stereo not given) |
| 158 to 160 | Nc1ccc(NC(=O)N2CCc3cc(S(=O)(=O)N4CC(c5ccccc5)NC4=O)ccc32)cc1 (stereo not given) |
| > 300 | CCN1CCN(c2c(F)cc3c(=O)c(C(=O)O)cn(C4CC4)c3c2C#N)CC1 |
